Assays:
[1] = target: T1, Glutamate receptor ionotropic, AMPA (Rattus norvegicus) (UniProt P19491+P19492+P19493+P19490); assay: Concentration of drug giving a 2-fold increase of the magnitude of the current induced by Ionotropic glutamate receptor AMPA (30 uM) and measured in Xenopus Oocytes expressing Rat Cortex AMPA Receptors; type: functional, cell-based
[2] = target: T1, Glutamate receptor ionotropic, AMPA (Rattus norvegicus); assay: concentration of drug giving a 5-fold increase of the magnitude of the current induced by Ionotropic glutamate receptor AMPA (30 uM) and measured in Xenopus Oocytes expressing Rat Cortex AMPA Receptors; type: functional, cell-based
[3] = Partition coefficient was measured in between 1-octanol and aqueous buffer solution of pH 7.4; type: physicochemical; conditions: 1-octanol/aqueous buffer
[4] = organism: Rattus norvegicus; assay: Residual insulin release from rat pancreatic islets incubated in the presence of an insulinotropic […] glucose concentration and at a 50 uM concentration of drug; type: functional
[5] = organism: Rattus norvegicus; assay: Effect on duration of the postsynaptic excitatory potentials induced by electric stimulation in rat hippocampal slices; type: functional, Hippocampus
[6] = organism: Rattus norvegicus; assay: Effect on amplitude of the postsynaptic excitatory potentials induced by electric stimulation in rat hippocampal slices; type: functional, Hippocampus
[7] = Ratio between the D50 value and the A50 value; type: functional
[8] = organism: Rattus norvegicus; assay: Concentration for 50 percent increase of the duration (D50) of the postsynaptic excitatory potentials induced by electric stimulation in rat hippocampal slices; type: functional, Hippocampus
[9] = organism: Rattus norvegicus; assay: Concentration for 50 percent increase of the amplitude (A50) of the postsynaptic excitatory potentials induced by electric stimulation in rat hippocampal slices; type: functional, Hippocampus

Row | SMILES | EC2x [1] | EC5X [2] | further results
1 | O=S1(=O)N=CNc2ccncc21 | > 1000 µM | > 1000 µM | 
2 | CC1=NS(=O)(=O)c2cccnc2N1 | > 1000 µM | > 1000 µM | logD [3]: -0.25; RIS [4]: 92.8%
3 | CCC1NS(=O)(=O)c2cnccc2N1C (stereo not given) | 800 µM | > 1000 µM | 
4 | CCC1Nc2ccncc2S(=O)(=O)N1 (stereo not given) | > 1000 µM | > 1000 µM | 
5 | CN1C=NS(=O)(=O)c2ncccc21 | 265 µM | 645 µM | 
6 | CN1CNc2cccnc2S1(=O)=O | 341 µM | 766 µM | 
7 | O=S1(=O)NCN(CC(F)(F)F)c2ccncc21 | 110 µM | 215 µM | 
8 | CC1Nc2ncccc2S(=O)(=O)N1 (stereo not given) | > 1000 µM | > 1000 µM | logD [3]: 0.35; RIS [4]: 94.8%
9 | O=S1(=O)N=CNc2ncccc21 | > 1000 µM | > 1000 µM | 
10 | O=S1(=O)NCNc2ccncc21 | > 1000 µM | > 1000 µM | 
11 | CCC1=NS(=O)(=O)c2cnccc2N1 | > 1000 µM | > 1000 µM | 
12 | CC1Nc2ccncc2S(=O)(=O)N1C (stereo not given) | 214 µM | 381 µM | 
13 | O=S1(=O)c2cnccc2NCN1c1ccccc1 | > 100 µM | > 100 µM | 
14 | CCN1CN(C)S(=O)(=O)c2ncccc21 | 38 µM | 96 µM | 
15 | NS(=O)(=O)c1cc2c(cc1Cl)NC(C1CC3C=CC1C3)NS2(=O)=O (stereo not given) [CYCLOTHIAZIDE] | 1.6 µM | 9.8 µM | D50 [5]: >300 µM; A50 [6]: >300 µM
16 | COc1ccc(C(=O)N2CCCC2=O)cc1 | 1440 µM | > 3000 µM | D50 [5]: >2000 µM
17 | CC(C)N1CNc2ccncc2S1(=O)=O | > 300 µM | > 300 µM | 
18 | CCC(CC)C1Nc2ccncc2S(=O)(=O)N1 (stereo not given) | > 1000 µM | > 1000 µM | 
19 | CC1=NS(=O)(=O)c2cnccc2N1 | > 1000 µM | > 1000 µM | logD [3]: -0.41; RIS [4]: 100%

Row | SMILES | EC2x [1] | EC5X [2] | further results
20 | O=S1(=O)NCNc2ncccc21 | > 1000 µM | > 1000 µM | 
21 | CCCN1CNS(=O)(=O)c2cnccc21 | 300 µM | 805 µM | 
22 | CCC(C)NC1=NS(=O)(=O)c2cnccc2N1 (stereo not given) | > 1000 µM | > 1000 µM | RIS [4]: 9.4%
23 | CCN1CNS(=O)(=O)c2cnccc21 | 55 µM | 195 µM | D50 [5]: 137 µM; Ratio [7]: 0.6; A50 [6]: 222 µM
24 | O=S1(=O)c2cnccc2NCN1C1CCCCC1 | > 100 µM | > 100 µM | 
25 | CN1CNS(=O)(=O)c2cccnc21 | 200 µM | 500 µM | 
26 | CC1Nc2cccnc2S(=O)(=O)N1 (stereo not given) | 114 µM | 270 µM | logD [3]: -0.2; RIS [4]: 81%; D50 [5]: 100 µM; Ratio [7]: 0.65; A50 [6]: 154 µM
27 | O=S1(=O)NC(c2ccccc2)Nc2ccncc21 (stereo not given) | > 1000 µM | > 1000 µM | 
28 | CC(C)C(C)NC1=NS(=O)(=O)c2cnccc2N1 (stereo not given) | > 1000 µM | > 1000 µM | RIS [4]: 8.6%
29 | CN1CN(C)S(=O)(=O)c2cnccc21 | 300 µM | > 1000 µM | 
30 | O=S1(=O)NCN(C2CCCCC2)c2ccncc21 | > 1000 µM | > 1000 µM | 
31 | O=S1(=O)N=CNc2cccnc21 | > 1000 µM | > 1000 µM | 
32 | O=S1(=O)N=C(C(F)(F)F)Nc2ccncc21 | > 1000 µM | > 1000 µM | 
33 | CC1=NS(=O)(=O)c2cccnc2N1C | 800 µM | > 1000 µM | 
34 | CCCCCN1CNc2ccncc2S1(=O)=O | > 100 µM | > 100 µM | 
35 | CN1CNc2ccncc2S1(=O)=O | > 1000 µM | > 1000 µM | 
36 | CC(C)N1CNS(=O)(=O)c2ncccc21 | 27 µM | 41 µM | 
37 | CN1CNS(=O)(=O)c2ncccc21 | 21 µM | 51 µM | D50 [5]: 48 µM; Ratio [7]: 0.6; A50 [6]: 79 µM
38 | CC1NS(=O)(=O)c2cnccc2N1C (stereo not given) | 150 µM | 450 µM | 

Row | SMILES | EC2x [1] | EC5X [2] | further results
39 | CCN1CN(CC)S(=O)(=O)c2ncccc21 | 87 µM | 220 µM | 
40 | CC1Nc2ccncc2S(=O)(=O)N1 (stereo not given) | 500 µM | > 1000 µM | logD [3]: 0.13; RIS [4]: 93.6%
41 | CCCCN1CNS(=O)(=O)c2cnccc21 | 800 µM | > 1000 µM | 
42 | O=S1(=O)NC(C2CCCCC2)Nc2ccncc21 (stereo not given) | > 1000 µM | > 1000 µM | 
43 | CC1=NS(=O)(=O)c2cnccc2N1C(C)C | 500 µM | 1200 µM | 
44 | CCCNC1=NS(=O)(=O)c2cnccc2N1 | > 1000 µM | > 1000 µM | RIS [4]: 57.7%
45 | CN1CNS(=O)(=O)c2cnccc21 | 63 µM | 283 µM | RIS [4]: 95.8%; D50 [5]: 130 µM; Ratio [7]: 0.6; A50 [6]: 216 µM
46 | CCCC1Nc2ccncc2S(=O)(=O)N1 (stereo not given) | > 1000 µM | > 1000 µM | 
47 | CC1=NS(=O)(=O)c2ncccc2N1 | 400 µM | 900 µM | logD [3]: -0.91; RIS [4]: 98.7%
48 | CN1CN(C)S(=O)(=O)c2ncccc21 | 39 µM | 133 µM | 
49 | CCN1C=NS(=O)(=O)c2ncccc21 | 96 µM | 186 µM | 
50 | NC1=NS(=O)(=O)c2cnccc2N1 | > 1000 µM | > 1000 µM | RIS [4]: 104%
51 | CC1=Nc2ccc(Cl)cc2S(=O)(=O)N1 [DIAZOXIDE] | 448 µM | > 1000 µM | RIS [4]: 28.8%; D50 [8]: >500 µM; A50 [9]: >500 µM
52 | CC1=NS(=O)(=O)c2cnccc2N1C | 250 µM | 800 µM | 
53 | CC(C)N1CNS(=O)(=O)c2cnccc21 | 94 µM | 237 µM | RIS [4]: 101%
54 | CC(C)N1CN(C)S(=O)(=O)c2cnccc21 | > 1000 µM | > 1000 µM | 
55 | CC(C)C1Nc2ccncc2S(=O)(=O)N1 (stereo not given) | > 1000 µM | > 1000 µM | 
56 | O=S1(=O)NCNc2cccnc21 | 300 µM | 1100 µM | 
57 | CCCN1CN(C)c2ccncc2S1(=O)=O | > 1000 µM | > 1000 µM | 
